Experimental data published in patent US9103820B2 (priority 2004, dated 2015).
Positions of bridges follow the written chain, without caps; N, C: chain ends. Non-standard residues stand in square brackets, D forms with d. Chains are numbered I, II in the order given. No end group written: not given here. ξ: configuration not given here. ξK = NCCCCC(N)C(=O)O; Ahx = NCCCCCC(=O)O

What was measured:
[1] = molecular target: STX; conditions: read-out: affinity (Kd) for STX; cited from earlier work
[2] = molecular target: His-tagged Stx 2B-subunit (Escherichia phage 933W, UniProt P09386); test: biochemical; format: binding, Escherichia coli O157:H7
Sequence of His-tagged Stx 2B-subunit (P09386 20-89 limits assumed): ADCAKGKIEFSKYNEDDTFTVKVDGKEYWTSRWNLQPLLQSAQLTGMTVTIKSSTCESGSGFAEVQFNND

| Substance | Kd [1] | Kd [2] |
| --- | --- | --- |
| Galα(1-4)-Galβ(1-4)-G1cβ1- [globo3 sugar] | 1 mM | – |
| I: MAFRRNRRNA[Ahx][ξK][ξK] / II: MAFRRNRRNA[Ahx][ξK] / III: MAFRRNRRNA[Ahx] / IV: MAFRRNRRNA[Ahx] (amide I:12-IV:C, I:13-II:C, II:12-III:C) [FRRNRRN] | – | 1700 nM |
| I: MAKRRNPRRA[Ahx][ξK][ξK] / II: MAKRRNPRRA[Ahx][ξK] / III: MAKRRNPRRA[Ahx] / IV: MAKRRNPRRA[Ahx] (amide I:12-IV:C, I:13-II:C, II:12-III:C) [KRRNPRR] | – | 2100 nM |
| I: MAPPPRRRRA[Ahx][ξK][ξK] / II: MAPPPRRRRA[Ahx][ξK] / III: MAPPPRRRRA[Ahx] / IV: MAPPPRRRRA[Ahx] (amide I:12-IV:C, I:13-II:C, II:12-III:C) [PPPRRRR] | – | 3200 nM |
| I: MAPPRRNRRA[Ahx][ξK][ξK] / II: MAPPRRNRRA[Ahx][ξK] / III: MAPPRRNRRA[Ahx] / IV: MAPPRRNRRA[Ahx] (amide I:12-IV:C, I:13-II:C, II:12-III:C) [PPRRNRR] | – | 2700 nM |
